Experimental data taken from US12281125B2, “Rapamycin derivatives” (NOVARTIS AG, priority 2018, dated 2025).
pKd: −log10 of the molar value.

Tests used:
[1] = target: T1, FKBP13-rapalog-mTOR (amino acids 2019-2112) ternary complex (Homo sapiens, UniProt P26885+P42345); assay: SPR ternary complex formation, rapalog bound to FKBP13 with mTOR; type: binding; details: rapalog bound to FKBP with mTOR, read-out: FKBP13 apparent affinity KD for ternary complex formation
T1 construct: his^6-mTOR (amino acids 2019-2112) was diluted in buffer; made in house; host or cells: E. coli
T1 sequence (P26885 22-142): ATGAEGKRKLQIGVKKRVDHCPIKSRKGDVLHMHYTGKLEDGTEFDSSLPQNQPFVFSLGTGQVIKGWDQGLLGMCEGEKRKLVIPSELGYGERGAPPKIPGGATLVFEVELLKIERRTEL
T1 sequence (P42345 2019-2112 limits assumed): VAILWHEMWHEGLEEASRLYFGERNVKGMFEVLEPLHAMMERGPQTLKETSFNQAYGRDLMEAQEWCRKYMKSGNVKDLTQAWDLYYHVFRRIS
Experimental: N-terminal avi-his6-tagged FKBP fusion proteins were expressed in E. coli and purified with nickel chromatography using standard procedures. Biotinylated his-avi-FKBPs were immobilized on a streptavidin chip using a Biacore 8K (GE Healthcare). To determine the kinetics-affinity of the rapalogs for FKBPs, rapalogs were diluted in DMSO to 50× working concentration. Next, 3.1 uLs of each rapalog solution was added to 150 uLs of buffer (50 mM Tris pH 7.5/150 mM NaCl/0.01% Tween 20/1 mM DTT) in a 384 deep well plate (greiner bio-one/78127) and mixed using a Biomek FX. The rapalog solution gradients (6 concentrations/2 fold dilutions, 3.1-100 nM or 31-1000 nM or 310-10000 nM) were then injected at 45 uL/min for 120 seconds: contact time and dissociation time was 1800 seconds in running buffer (50 mM Tris pH 7.5/150 mM NaCl/0.01% Tween 20/1 mM DTT/2% DMSO). The single-cycle kinetics data were fit to a 1:1 binding model to measure the association rate ka (1/Ms), the dissociation rate kd (1/s) and the affinity KD (M). […] 3.1 uLs of the 500 μM rapalog solutions were added to 150 uLs of the mTOR samples in a 384 deep well plate (greiner bio-one/78127) and mixed using a Biomek FX. The mTOR solution gradients were then injected at 45 uL/min for 120 seconds: contact time and dissociation time was 1800 seconds in running buffer (50 mM Tris pH 7.5/150 mM NaCl/0.01% Tween 20/1 mM DTT/2% DMSO). […]

[2] = tested on: mTORC1 activity, S6K1 (Thr389) in FKBP12 knock-out 293T cells; assay: S6K1(Thr389) phosphorylation ELISA in FKBP12 knock-out 293T cells; type: cell-based; details: 2 hours
Description: (§1) A CRISPR/Cas9 system was used to deliver ribonucleoprotein complexes containing guide RNA (gRNA) sequences that target FKBP12
(§2) ([…], location 35620248) into 293T cells, using the Amaxa® 4D-Nucleofector™ X Kit (Lonza, V4XC-2032). Cell clones were screened by immunoblotting with anti-FKBP-specific antibodies: FKBP12 (Novus, NB300-508), FKBP12.6 (Abnova, H00002281-M01), FKBP13 (R&D Systems, MAB4356), FKBP25 (R&D Systems, MAB3955), FKBP52 (Cell signaling Technology, #11826) and FKBP51 (Cell signaling Technology, #12210). […] Quintuple FKBP12/12.6/13/52/51 knock-out and FKBP12/12.6/25/52/51 knock-out cells were generated by sequentially knocking out five FKBP genes.
(§3) WT, FKBP12 knock-out, FKBP12/12.6/13/52/51 knock-out or FKBP12/12.6/25/52/51 knock-out 293T cells were plated at a density of 30,000 cells per well in poly-D-Lysine coated 96-well plates (Corning, #354461) in Dulbecco's modified Eagle's medium (ThermoFisher, #11995-065) supplemented with 10% fetal bovine serum (ThermoFisher, #16140-071). Cells were incubated at 37° C., 5% CO2 for 48 hours until they reached ˜80% confluence. […] Media supplemented with blank Dimethyl sulfoxide (DMSO) was used as a control for both compounds. Phosphorylated amounts of S6K1 (Thr389) were detected by a sandwich ELISA kit (Cell signaling, #7063C) following the manufacture's protocol.

[3] = tested on: mTORC1 activity, S6K1 (Thr389) in FKBP12/12.6/13/52/51 knock-out 293T cells; assay: S6K1(Thr389) phosphorylation ELISA in FKBP12/12.6/13/52/51 knock-out 293T cells; type: cell-based
Description: as §1, §2, §3

[4] = target: T2, FKBP52 (Homo sapiens, UniProt Q02790); assay: SPR assay, binding affinity to FKBP52; details: equilibrium dissociation constant
T2 construct: made in house; host or cells: E. coli
T2 sequence (Q02790 1-459): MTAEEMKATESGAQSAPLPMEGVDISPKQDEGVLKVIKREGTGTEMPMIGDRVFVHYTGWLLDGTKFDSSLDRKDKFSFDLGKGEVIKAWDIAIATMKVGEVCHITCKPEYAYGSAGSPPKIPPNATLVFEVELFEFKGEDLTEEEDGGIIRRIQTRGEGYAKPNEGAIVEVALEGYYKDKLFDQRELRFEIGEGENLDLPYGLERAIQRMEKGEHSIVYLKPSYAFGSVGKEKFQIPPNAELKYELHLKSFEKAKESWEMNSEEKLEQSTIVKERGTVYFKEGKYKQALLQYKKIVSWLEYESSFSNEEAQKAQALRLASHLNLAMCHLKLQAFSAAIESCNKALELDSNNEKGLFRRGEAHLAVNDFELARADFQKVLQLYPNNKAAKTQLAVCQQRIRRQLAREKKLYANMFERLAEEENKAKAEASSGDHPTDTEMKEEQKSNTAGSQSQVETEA
Experimental: N-terminal avi-his6-tagged FKBP fusion proteins were expressed in E. coli and purified with nickel chromatography using standard procedures. Biotinylated his-avi-FKBPs were immobilized on a streptavidin chip using a Biacore 8K (GE Healthcare). To determine the kinetics-affinity of the rapalogs for FKBPs, rapalogs were diluted in DMSO to 50× working concentration. Next, 3.1 uLs of each rapalog solution was added to 150 uLs of buffer (50 mM Tris pH 7.5/150 mM NaCl/0.01% Tween 20/1 mM DTT) in a 384 deep well plate (greiner bio-one/78127) and mixed using a Biomek FX. The rapalog solution gradients (6 concentrations/2 fold dilutions, 3.1-100 nM or 31-1000 nM or 310-10000 nM) were then injected at 45 uL/min for 120 seconds: contact time and dissociation time was 1800 seconds in running buffer (50 mM Tris pH 7.5/150 mM NaCl/0.01% Tween 20/1 mM DTT/2% DMSO). The single-cycle kinetics data were fit to a 1:1 binding model to measure the association rate ka (1/Ms), the dissociation rate kd (1/s) and the affinity KD (M). […] 3.1 uLs of the 500 μM rapalog solutions were added to 150 uLs of the mTOR samples in a 384 deep well plate (greiner bio-one/78127) and mixed using a Biomek FX. The mTOR solution gradients were then injected at 45 uL/min for 120 seconds: contact time and dissociation time was 1800 seconds in running buffer (50 mM Tris pH 7.5/150 mM NaCl/0.01% Tween 20/1 mM DTT/2% DMSO). The single-cycle kinetics data was fit to a 1:1 binding model to measure the association rate ka (1/Ms), the dissociation rate kd (1/s) and the apparent affinity KD (M) for ternary complex formation.
The equilibrium dissociation constants (KD) to FKBP12, FKBP51, and FKBP52 are shown below in Table 6.

[5] = tested on: mTORC1 activity, S6K1 (Thr389) in WT 293T cells; assay: S6K1(Thr389) phosphorylation ELISA in wild-type 293T cells; type: cell-based; details: 2 hours
Experimental: as §3
S6K1 is a downstream target of mTORC1 and phosphorylation of its rapalog-sensitive Thir389 site is used as a functional readout of mTORC1 activity (Lee, C. H., Inoki, K. and Guan, K. L. (2007). mTOR pathway as a target in tissue hypertrophy. Annu. Rev. Pharmacol. Toxicol. 47, 443-467).

SMILES	pKd [1]	de-phosphorylation of S6K1(Thr389) [2] [%]	inhibitory effect (potency) on S6K1 (Thr389), in words [3]	pKd [4]	inhibition of S6K1(Thr389) phosphorylation [5] [%]	inhibition of S6K1 (Thr389) ([3]; at the highest tested concentration) [%]
CO[C@H]1C[C@@H]2CC[C@@H](C)[C@@](O)(O2)C(=O)C(=O)N2CCCC[C@H]2C(=O)O[C@H]([C@H](C)C[C@@H]2CC[C@@H](OCCO)[C@H](OC)C2)CC(=O)[C@H](C)/C=C(\C)[C@@H](O)[C@@H](OC)C(=O)[C@H](C)C[C@H](C)/C=C/C=C/C=C/1C [RAD001, everolimus, reference compound]	7.68	~40	lost almost all it potency	5.75	~80	
CO[C@@H]1C[C@H](C[C@@H](C)[C@@H]2CC[C@H](C)/C=C(\C)[C@@H](O)[C@@H](OC)C(=O)[C@H](C)C[C@H](C)/C=C/C=C/C=C(\C)[C@@H](NS(C)(=O)=O)C[C@@H]3CC[C@@H](C)[C@@](O)(O3)C(=O)C(=O)N3CCCC[C@H]3C(=O)O2)CC[C@H]1O [Compound 2]	6.90	~70	efficacious in inhibiting S6K1 (Thr389)	6.43	~80	~90
